Test in all cases: NCI-60 cell line screen, 48 h
Assay [1] has as its system MDA-MB-231.
Assay [2] deals with NCI/ADR-RES.
The test system of assay [3] is PC-3.
Assay [4] deals with HT-29.
For assay [5], the system named is NCI-H460.
Assay [6] concerns HOP-92.
Assay [7] relates to TK-10.
The subject of assay [8] is SF-539.
The test system of assay [9] is UACC-257.
The subject of assay [10] is KM12.
In assay [11] the test system is SF-295.
Assay [12] concerns HCC 2998.
In assay [13] the test system is HOP-62.
Assay [14] has as its system UO-31.
Assay [15] has as its system UACC-62.
For assay [16], the system named is HL-60.
The test system of assay [17] is SK-MEL-5.
Assay [18] deals with SNB-19.
In assay [19] the test system is OVCAR-3.
For assay [20], the system named is A498.

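1) Cells in 96-well plates. 2) Compound, 48 h, 5 concentrations. 3) Linear interpolation between surrounding doses. 4) Unreached endpoint = highest concentration. GI50 = concentration required for 50% inhibition of growth.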 Active and inactive are the calls of the source. Cut-off read from the data, not from the text of the source: active = GI50 up to about 1.1 µM and inactive = higher. Where only a bound is given, the exact number is not on record here.

Regarding `CC(C)C(C/C=C1\CC(CO)(COC(=O)CC(C(C)C)C(C)C)OC1=O)C(C)C` (stereo not given), the GI50 in assay [1] was 12.8 µM (inactive); in [2], 16 µM (inactive); in assay [3], 11.7 µM (inactive); in [4], 17.7 µM (inactive); in assay [5], 4.07 µM (inactive); in assay [6] it was 0.902 µM (active). Moreover, the GI50 is 7.31 µM (inactive) in assay [7]; 18.3 µM (inactive) in [8]; 15.6 µM (inactive) in [9]; 14.2 µM (inactive) in [10]; 4.62 µM (inactive) in assay [11]; 5.96 µM (inactive) in [12]. The GI50 in [13] is 5.08 µM (inactive); in [14], 6.87 µM (inactive); in assay [15] it was 15.1 µM (inactive); in [16] it was 2.74 µM (inactive); in assay [17], 11 µM (inactive); in assay [18] it was 13.3 µM (inactive). Also, the results for the GI50 in [19] and in [20] were 15.6 µM (inactive) and 11.7 µM (inactive), respectively.

On to `CN(CCn1cnc2c1c(=O)n(C)c(=O)n2C)C1CCCCC1`, for which the GI50 in assay [1], in assay [2], in assay [3], in assay [4], in assay [5] and in assay [6] was > 100 µM (inactive) throughout. Besides, the GI50 in assay [7], in assay [8], in assay [9], in assay [10], in [11] and in assay [12] was > 100 µM (inactive) throughout. Also, the GI50 in [13], in assay [14], in [15], in assay [16], in assay [17] and in [18] was > 100 µM (inactive) in each case. In addition, the GI50 in assay [19] and in assay [20] was > 100 µM (inactive) in each case.

Consider `CC1CCN(c2nnc(Cl)cc2C(=O)c2ccccc2)CC1`, for which the GI50 was 27.5 µM (inactive) in assay [1]; 36.6 µM (inactive) in assay [2]; 20.4 µM (inactive) in assay [3]; 17.7 µM (inactive) in assay [4]; 29.5 µM (inactive) in assay [5]; 16 µM (inactive) in [6]. The GI50 in assay [7] was 37.6 µM (inactive); in [8], 25.4 µM (inactive); in assay [9], 18.7 µM (inactive); in assay [10] it was 18 µM (inactive); in [11], 24.7 µM (inactive); in [12], 30.5 µM (inactive). For the same compound, the GI50 is 28.4 µM (inactive) in [13]; 23.1 µM (inactive) in assay [14]; 26.8 µM (inactive) in assay [15]; 44.4 µM (inactive) in assay [16]; 16.6 µM (inactive) in assay [17]; 26.9 µM (inactive) in [18]. Besides, the GI50 in assay [19] is 22.4 µM (inactive); in [20], 35.7 µM (inactive).

Turning to `Cc1ccc(C2=Nc3cc(C)c(Cl)cc3S(=O)(=O)NN2)cc1`, the GI50 was 23.3 µM (inactive) in assay [1]; > 100 µM (inactive) in assay [2]; > 100 µM (inactive) in assay [3]; > 100 µM (inactive) in assay [4]; > 100 µM (inactive) in assay [5]; > 100 µM (inactive) in assay [6]. Also, the GI50 in assay [7] is 49.5 µM (inactive); in [8], > 100 µM (inactive); in assay [9] it was > 100 µM (inactive); in assay [10], > 100 µM (inactive); in assay [11] it was > 100 µM (inactive); in assay [12] it was > 100 µM (inactive). Also, the GI50 was > 100 µM (inactive) in [13]; > 100 µM (inactive) in [14]; 56.9 µM (inactive) in assay [15]; 34.4 µM (inactive) in assay [16]; > 100 µM (inactive) in assay [17]; 44.6 µM (inactive) in [18]. In addition, the GI50 in assay [19] and in assay [20] was > 100 µM (inactive) in each case.

In the case of `C=CCn1c(-c2ccc(Cl)cc2Cl)cs/c1=N\c1c(C)n(C)n(-c2ccccc2)c1=O`, the GI50 in [1] was 13.8 µM (inactive); in [2], 6.71 µM (inactive); in assay [3] it was 5.53 µM (inactive); in assay [4], 10.1 µM (inactive); in assay [5], 12.9 µM (inactive); in assay [6] it was 17.9 µM (inactive). Moreover, the GI50 in assay [7] is 12.3 µM (inactive); in assay [8] it was 14.8 µM (inactive); in assay [9], 7.05 µM (inactive); in assay [10], 13.5 µM (inactive); in [11], 6.9 µM (inactive); in assay [12], 15.3 µM (inactive). Further, the GI50 in assay [13] is 15.2 µM (inactive); in assay [14], 11.5 µM (inactive); in assay [15] it was 10.4 µM (inactive); in assay [16], 6.11 µM (inactive); in assay [17], 3.04 µM (inactive); in [18], 11.1 µM (inactive). Besides, the GI50 in assay [19] is 10.7 µM (inactive); in assay [20], 12.4 µM (inactive).

Take `O=C(OCC1OC(n2nc(Cn3nnc(-c4cccnc4)n3)n(-c3cccc4ccccc34)c2=S)C(OC(=O)c2ccccc2)C1OC(=O)c1ccccc1)c1ccccc1` (stereo not given): the GI50 in [1] was 53.8 µM (inactive); in assay [2], > 100 µM (inactive); in assay [3], > 100 µM (inactive); in [4] it was > 100 µM (inactive); in assay [5] it was > 100 µM (inactive); in assay [6], > 100 µM (inactive). Further, the GI50 in assay [7], in [8], in [9], in [10], in assay [11] and in assay [12] was > 100 µM (inactive) throughout. The GI50 in [13], in assay [14], in assay [15], in assay [16], in assay [17] and in assay [18] was > 100 µM (inactive) each time. Further, the GI50 in assay [19] and in [20] was > 100 µM (inactive) throughout.

`CCN(CC)CCNc1c2ccccc2nc2cccc([N+](=O)[O-])c12`: the GI50 was 0.00136 µM (active) in assay [1]; 0.0112 µM (active) in assay [2]; 0.00301 µM (active) in assay [3]; 0.0122 µM (active) in assay [4]; 0.00622 µM (active) in assay [5]; 0.0146 µM (active) in assay [6]. Also, the GI50 in assay [7] is 0.0288 µM (active); in assay [8] it was 0.0224 µM (active); in assay [9] it was 0.0255 µM (active); in assay [10], 0.0352 µM (active); in assay [11], 0.00912 µM (active); in assay [12], 0.0151 µM (active). Also, the GI50 in [13] was 0.00638 µM (active); in assay [14], 0.0198 µM (active); in [15], 0.0143 µM (active); in assay [16] it was 0.046 µM (active); in assay [17] it was 0.00902 µM (active); in assay [18], 0.0186 µM (active). The GI50 in [19] was 0.0123 µM (active); in assay [20], 0.00782 µM (active).

Turning to `CC(=O)OCC(=O)O[C@@H]1[C@H]2[C@@H](OC(=O)c3ccccc3)[C@@H](C)C[C@]2(O)[C@H](OC(C)=O)[C@@]2(C)C[C@]1(OC(C)=O)C[C@H]1C(=O)C(C)(C)[C@@H](OC(C)=O)[C@@H]12`, the GI50 in assay [1] was > 25 µM (inactive); in [2] it was > 25 µM (inactive); in assay [3], 22.4 µM (inactive); in [4] it was 9.42 µM (inactive); in assay [5], 0.991 µM (active); in [6] it was > 16.3 µM (inactive). For the same compound, the GI50 is > 25 µM (inactive) in assay [7]; > 25 µM (inactive) in [8]; > 25 µM (inactive) in assay [9]; > 25 µM (inactive) in assay [10]; 6.01 µM (inactive) in assay [11]; 9.38 µM (inactive) in [12]. Also, the GI50 in assay [13] was 5.78 µM (inactive); in [14] it was 0.912 µM (active); in [15], > 25 µM (inactive); in assay [16], 2.77 µM (inactive); in assay [17], 9.46 µM (inactive); in [18] it was > 25 µM (inactive). Besides, the GI50 was > 25 µM (inactive) in assay [19] and 13.4 µM (inactive) in [20].

Regarding `O=C(CNc1ccc2c(=S)c3ccccc3[nH]c2c1)Nc1ccccc1-c1ccccc1NC(=O)CNc1ccc2c(=S)c3ccccc3[nH]c2c1`, the GI50 was 22.7 µM (inactive) in [1]; 31.2 µM (inactive) in [2]; 19.4 µM (inactive) in assay [3]; 19.7 µM (inactive) in assay [4]; 17.1 µM (inactive) in assay [5]; 23 µM (inactive) in assay [6]. Besides, the GI50 in assay [7] is 26.1 µM (inactive); in [8], 24.7 µM (inactive); in assay [9], 21 µM (inactive); in assay [10], 18.5 µM (inactive); in assay [11], 21.2 µM (inactive); in assay [12], 15.1 µM (inactive). Further, the GI50 in [13] was 24.3 µM (inactive); in [14], 15.3 µM (inactive); in [15], 18.2 µM (inactive); in [16] it was 2.99 µM (inactive); in [17] it was 15.2 µM (inactive); in [18] it was 17.2 µM (inactive). The GI50 in assay [19] is 24.8 µM (inactive); in [20], 25.2 µM (inactive).

As for `O=C(c1ccc2ccccc2c1)N(Cc1cccnc1)C(=S)N(Cc1cccnc1)C(=O)c1ccc2ccccc2c1`, the GI50 in assay [1] is 23.2 µM (inactive); in [2] it was 30 µM (inactive); in assay [3] it was 28.3 µM (inactive); in assay [4], 30 µM (inactive); in assay [5], 30.6 µM (inactive); in [6] it was 26.5 µM (inactive). Moreover, the GI50 was 31.1 µM (inactive) in assay [7]; 40 µM (inactive) in assay [8]; 19.5 µM (inactive) in assay [9]; 22 µM (inactive) in assay [10]; 34.7 µM (inactive) in assay [11]; 16.5 µM (inactive) in [12]. Besides, the GI50 in [13] is 23.2 µM (inactive); in assay [14], 28.6 µM (inactive); in assay [15] it was 26 µM (inactive); in assay [16] it was 40.8 µM (inactive); in assay [17] it was 20.6 µM (inactive); in assay [18], 37.2 µM (inactive). For the same compound, the GI50 in [19] is 20.5 µM (inactive); in assay [20], 32.9 µM (inactive).
